# Assay results published in patent US11254690B2, “PTEFb inhibiting macrocyclic compounds” (BAYER AKTIENGESELLSCHAFT, priority 2017, dated 2022).
# How the values were obtained:
# CDK9/CycT1 = molecular target: T1, CDK9/CycT1 (Homo sapiens, UniProt P50750); assay: CDK9/CycT1 high ATP kinase assay (TR-FRET, 2 mM ATP); assay type: biochemical; conditions: for IC50: 2 mM ATP, Method 1b, lower limit for IC50s about 1-2 nM; for Selectivity high ATP CDK9 over high ATP CDK2: IC50 (high ATP CDK2)/IC50 (high ATP CDK9): ratio from Methods 1b and 2b, minimal values for IC50s near the assay limit
# T1 construct: Recombinant full-length His-tagged human CDK9 and CycT1; His; purchased Life Technologies PV4131; host or cells: insect cells
# Method: 1b. CDK9/CycT1 High ATP Kinase Assay
# CDK9/CycT1-inhibitory activity of compounds of the present invention at a high ATP concentration after preincubation of enzyme and test compounds was quantified employing the CDK9/CycT1 TR-FRET assay as described in the following paragraphs.
# Recombinant full-length His-tagged human CDK9 and CycT1, expressed in insect cells and purified by Ni-NTA affinity chromatography, were purchased from Life Technologies (Cat. No PV4131). As substrate for the kinase reaction biotinylated peptide biotin-Ttds-YISPLKSPYKISEG (C-terminus in amide form) was used which can be purchased e.g. form the company JERINI peptide technologies (Berlin, Germany).
# (§1) For the assay 50 nl of a 100 fold concentrated solution of the test compound in DMSO was pipetted into either a black low volume 384 well microtiter plate or a black 1536 well microtiter plate (both Greiner Bio-One, Frickenhausen, Germany), 2 μl of a solution of CDK9/CycT1 in aqueous assay buffer [50 mM Tris/HCl pH 8.0, 10 mM MgCl2, 1.0 mM dithiothreitol, 0.1 mM sodium ortho-vanadate, 0.01% (v/v) Nonidet-P40 (Sigma)] were added and the mixture was incubated for 15 min at 22° C. to allow pre-binding of the test compounds to the enzyme before the start of the kinase reaction. […] The concentration of CDK9/CycT1 was adjusted depending of the activity of the enzyme lot and was chosen appropriate to have the assay in the linear range, typical concentrations were in the range of 0.5 μg/ml. The reaction was stopped by the addition of 3 μl of a solution of TR-FRET detection reagents (0.33 μM streptavidine-XL665 [Cisbio Bioassays, Codolet, France] and 1.67 nM anti-RB(pSer807/pSer811)-antibody from BD Pharmingen [#558389] and 2 nM LANCE EU-W1024 labeled anti-mouse IgG antibody [Perkin-Elmer, product no. AD0077]) in an aqueous EDTA-solution (167 mM EDTA, 0.2% (w/v) bovine serum albumin in 100 mM HEPES pH 7.5).
# (§2) The resulting mixture was incubated 1 h at 22° C. to allow the formation of complex between the phosphorylated biotinylated peptide and the detection reagents. Subsequently the amount of phosphorylated substrate was evaluated by measurement of the resonance energy transfer from the Eu-chelate to the streptavidine-XL. Therefore, the fluorescence emissions at 620 nm and 665 nm after excitation at 350 nm was measured in a TR-FRET reader, e.g. a Pherastar (BMG Labtechnologies, Offenburg, Germany) or a Viewlux (Perkin-Elmer). The ratio of the emissions at 665 nm and at […] was taken as the measure for the amount of phosphorylated substrate. The data were normalised (enzyme reaction without inhibitor=0% inhibition, all other assay components but no enzyme=100% inhibition).
# CDK2/CycE = molecular target: T2, CDK2/CycE (Homo sapiens, UniProt P24941); assay: CDK2/CycE high ATP kinase assay (TR-FRET, 2 mM ATP); assay type: biochemical; conditions: Method 2b
# T2 construct: GST; purchased ProQinase GmbH (Freiburg, Germany); host or cells: insect cells (Sf9)
# Method: 2b. CDK2/CycE High ATP Kinase Assay
# CDK2/CycE-inhibitory activity of compounds of the present invention at 2 mM adenosine-tri-phosphate (ATP) was quantified employing the CDK2/CycE TR-FRET (TR-FRET=Time Resolved Fluorescence Energy Transfer) assay as described in the following paragraphs.
# Recombinant fusion proteins of GST and human CDK2 and of GST and human CycE, expressed in insect cells (Sf9) and purified by Glutathion-Sepharose affinity chromatography, were purchase from ProQinase GmbH (Freiburg, Germany). As substrate for the kinase reaction biotinylated peptide biotin-Ttds-YISPLKSPYKISEG (C-terminus in amid form) was used which can be purchased e.g. form the company JERINI peptide technologies (Berlin, Germany).
# as §1, with “CDK2/CycE” for “CDK9/CycT1”, “about 10 ng/ml.” for “in the range of 0.5 μg/ml.”, “(0.333” for “(0.33”, “AD0077, as an alternative a Terbium-cryptate-labeled anti-mouse IgG antibody from Cisbio Bioassays can be used])” for “AD0077])”
# as §2
# T1 sequence (P50750 whole entry): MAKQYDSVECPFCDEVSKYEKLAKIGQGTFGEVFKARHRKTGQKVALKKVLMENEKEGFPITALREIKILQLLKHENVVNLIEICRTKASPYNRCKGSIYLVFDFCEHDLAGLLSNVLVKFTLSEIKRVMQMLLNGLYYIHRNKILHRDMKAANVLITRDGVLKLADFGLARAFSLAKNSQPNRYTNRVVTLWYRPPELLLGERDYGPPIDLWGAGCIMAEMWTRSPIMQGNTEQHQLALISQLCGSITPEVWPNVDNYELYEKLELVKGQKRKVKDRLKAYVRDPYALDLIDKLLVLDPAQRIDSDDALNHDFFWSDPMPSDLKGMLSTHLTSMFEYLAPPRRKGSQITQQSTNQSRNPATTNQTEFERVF
# T1 sequence (O60563 whole entry partner): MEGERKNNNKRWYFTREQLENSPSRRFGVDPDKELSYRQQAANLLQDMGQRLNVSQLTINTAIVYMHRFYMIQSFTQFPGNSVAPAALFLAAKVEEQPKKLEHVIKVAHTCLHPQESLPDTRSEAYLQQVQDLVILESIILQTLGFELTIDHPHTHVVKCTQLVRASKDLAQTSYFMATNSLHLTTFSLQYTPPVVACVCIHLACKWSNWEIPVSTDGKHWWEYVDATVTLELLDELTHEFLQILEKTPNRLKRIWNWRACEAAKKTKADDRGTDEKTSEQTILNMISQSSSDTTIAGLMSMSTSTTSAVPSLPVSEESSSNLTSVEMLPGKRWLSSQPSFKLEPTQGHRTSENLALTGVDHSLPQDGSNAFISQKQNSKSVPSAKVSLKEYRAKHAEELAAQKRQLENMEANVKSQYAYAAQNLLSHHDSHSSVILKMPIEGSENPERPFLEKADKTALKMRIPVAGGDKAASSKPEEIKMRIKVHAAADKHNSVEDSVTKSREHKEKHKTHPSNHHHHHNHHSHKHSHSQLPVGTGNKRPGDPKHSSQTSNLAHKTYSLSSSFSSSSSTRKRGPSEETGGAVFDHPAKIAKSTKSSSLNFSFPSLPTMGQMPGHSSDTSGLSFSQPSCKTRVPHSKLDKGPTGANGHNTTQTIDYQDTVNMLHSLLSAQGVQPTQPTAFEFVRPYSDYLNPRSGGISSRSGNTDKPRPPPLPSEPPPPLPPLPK
SMILES,IC50 (CDK9/CycT1) [nM],Selectivity high ATP CDK9 over high ATP CDK2: IC50 (high ATP CDK2)/IC50 (high ATP CDK9) (CDK9/CycT1),IC50 (CDK2/CycE) [nM]
"CSCc1cc2nc(c1)OC(C)CCCCOc1cc(ccc1F)-c1cc(ncc1F)N2 (racemic) [Example 18, (rac)-3,21-difluoro-14-methyl-10-[(methylsulfanyl)methyl]-13,19-dioxa-5,7,25-triazatetracyclo[18.3.1.1^2,6.1^8,12]hexacosa-1(24),2(26),3,5,8(25),9,11,20,22-nonaene]",32,>625,> 20000
"CSCc1cc2nc(c1)OC(C)CCCCCOc1cc(ccc1F)-c1cc(ncc1F)N2 (racemic) [Example 23, (rac)-3,22-difluoro-14-methyl-10-[(methylsulfanyl)methyl]-13,20-dioxa-5,7,26-triazatetracyclo[19.3.1.1^2,6.1^8,12]heptacosa-1(25),2(27),3,5,8(26),9,11,21,23-nonaene]",67,>298,> 20000
"CSCc1cc2nc(c1)OC(C)CCCOc1cc(ccc1F)-c1cc(ncc1F)N2 (single isomer, unassigned) [Example 12, 3,20-difluoro-14-methyl-10-[(methylsulfanyl)methyl]-13,18-dioxa-5,7,24-triazatetracyclo[17.3.1.1^2,6.1^8,12]pentacosa-1(23),2(25),3,5,8(24),9,11,19,21-nonaene]",4,1613,6450
"CSCc1cc2nc(c1)OC(C)CCCOc1cc(ccc1F)-c1cc(ncc1F)N2 (single isomer, unassigned) [Example 13, 3,20-difluoro-14-methyl-10-[(methylsulfanyl)methyl]-13,18-dioxa-5,7,24-triazatetracyclo[17.3.1.1^2,6.1^8,12]pentacosa-1(23),2(25),3,5,8(24),9,11,19,21-nonaene]",4,178,711
"CSCc1cc2nc(c1)OC(C)CCCCOc1cc(ccc1F)-c1cc(ncc1F)N2 (single isomer, unassigned) [Example 19, 3,21-difluoro-14-methyl-10-[(methylsulfanyl)methyl]-13,19-dioxa-5,7,25-triazatetracyclo[18.3.1.1^2,6.1^8,12]hexacosa-1(24),2(26),3,5,8(25),9,11,20,22-nonaene]",138,>145,> 20000
"CSCc1cc2nc(c1)OC(C)CCCCOc1cc(ccc1F)-c1cc(ncc1F)N2 (single isomer, unassigned) [Example 20, 3,21-difluoro-14-methyl-10-[(methylsulfanyl)methyl]-13,19-dioxa-5,7,25-triazatetracyclo[18.3.1.1^2,6.1^8,12]hexacosa-1(24),2(26),3,5,8(25),9,11,20,22-nonaene]",23,548,12600
"CSCc1cc2nc(c1)OC(C)CCCCCOc1cc(ccc1F)-c1cc(ncc1F)N2 (single isomer, unassigned) [Example 24, 3,22-difluoro-14-methyl-10-[(methylsulfanyl)methyl]-13,20-dioxa-5,7,26-triazatetracyclo[19.3.1.1^2,6.1^8,12]heptacosa-1(25),2(27),3,5,8(26),9,11,21,23-nonaene]",68,>294,> 20000
"CSCc1cc2nc(c1)OC(C)CCCCCOc1cc(ccc1F)-c1cc(ncc1F)N2 (single isomer, unassigned) [Example 25, 3,22-difluoro-14-methyl-10-[(methylsulfanyl)methyl]-13,20-dioxa-5,7,26-triazatetracyclo[19.3.1.1^2,6.1^8,12]heptacosa-1(25),2(27),3,5,8(26),9,11,21,23-nonaene]",93,>215,> 20000
